Results reported in patent US20080317836A1, “Topical compositions for anti-aging skin treatment” (DISCOVERY PARTNERS LLC, priority 2007, published 2008).

Experiment: Stability to intense pulsed light (IPL) flashes, monitored by absorbance spectrum
Type: physicochemical
Settings: ten pulses at maximum fluence of the flash lamp, visible spectral range
Description: A small study, on one subject, was conducted to see whether encapsulation of the sodium-copper-chlorophyllin within the liposome enhanced skin tanning, i.e., increased penetration and bioavailability of copper to the melanin-producing enzyme, […]. […] Three areas on the back received 1.0 MED simulated solar radiation: one area had received no treatment, one area had been pre-treated with the gel without liposome and the third area was treated with the liposome gel. An expert blinded grader scored the resulting skin tanning at 10 days after irradiation, using the Degree of Tanning scale 0 to 10 (darkest). […] Controlled dissociation of the sodium-copper-chlorophyllin complex is possible, in part because of the high stability of this complex. Normally, inorganic and organic copper salts, including copper-peptides, are not very stable with regard to binding copper. The inherent stability and lack of reactivity of sodium-copper-chlorophyllin is essential for this process to work successfully. […] Stability was monitored by measurement of the dye's full absorbance spectrum, since degradation of the dye would be detectable as changes in the absorbance spectrum.

sodium-copper-chlorophyllin [sodium-copper-chlorphyllin]
absorbance spectrum after IPL flashes: remained unchanged
